In brackets after ≈: the same amount, converted by molar mass. One block for each compound: values may come before it.
What was measured:
K. pneumoniae (KpFtsZ) = K. pneumoniae (KpFtsZ) (Klebsiella pneumoniae, UniProt A0A0H3GRR0); experiment: Fluorescence anisotropy binding of BOFP to KpFtsZ; conditions: 0.1 µM compound, 2 µM KpFtsZ, 37 °C
Procedure: (§1) Fluorescence anisotropy experiments were performed using an AVIV model ATF105 spectrofluorometer at 15, 25, or 37 °C. In these experiments, bandwidths were set to 4 nm in both the excitation and emission directions, with the excitation and emission wavelengths being set at 488 nm and 510 nm, respectively. BOFP (0.1 µM) was titrated with increasing concentrations (ranging from 0 to 12 µM) of FtsZ in 120 µL of buffer containing 50 mM Tris-HCl (pH 7.6) and 50 mM KCl. After each protein addition, the samples were equilibrated for 3 minutes, whereupon the fluorescence anisotropy was measured.
(§2) In this equation, r0 is the anisotropy of the protein-free compound, r∞ is the anisotropy of the compound in the presence of an infinite concentration of FtsZ, [C]tot is the total concentration of the compound, and [P]tot is the total concentration of protein with each addition. These analyses yielded the equilibrium dissociation constant (Kd) for each binding reaction.
(§3) The binding free energy (ΔG) at temperature T was derived from the corresponding Kd value determined at T using the following relationship:2 ΔG=−RTln(1/Kd)
(§4) The binding enthalpy (ΔH) and entropy (ΔS) were derived from linear fits of the ln(1/Kd) vs. 1/T plots shown in Figs. 3f and 5e using the following relationship:3 ln(1/Kd)=−ΔH/R(1/T)+ΔS/R
(§5) In comparative control experiments, the anisotropy of 0.1 µM BODIPY FL-COOH or BOFP alone or in the presence of SaFtsZ (10 µM), SpyFtsZ (10 µM), KpFtsZ (2 µM), or PaFtsZ (2 µM) was measured at 37 °C in the same buffer described above.

S. pyogenes (SpyFtsZ) = S. pyogenes (SpyFtsZ) (Streptococcus pyogenes, UniProt Q99YV7); experiment: Fluorescence anisotropy binding of BOFP to SpyFtsZ; conditions: 0.1 µM compound, 10 µM SpyFtsZ, 37 °C
Chain of S. pyogenes (SpyFtsZ) (Q99YV7 entry or part of it): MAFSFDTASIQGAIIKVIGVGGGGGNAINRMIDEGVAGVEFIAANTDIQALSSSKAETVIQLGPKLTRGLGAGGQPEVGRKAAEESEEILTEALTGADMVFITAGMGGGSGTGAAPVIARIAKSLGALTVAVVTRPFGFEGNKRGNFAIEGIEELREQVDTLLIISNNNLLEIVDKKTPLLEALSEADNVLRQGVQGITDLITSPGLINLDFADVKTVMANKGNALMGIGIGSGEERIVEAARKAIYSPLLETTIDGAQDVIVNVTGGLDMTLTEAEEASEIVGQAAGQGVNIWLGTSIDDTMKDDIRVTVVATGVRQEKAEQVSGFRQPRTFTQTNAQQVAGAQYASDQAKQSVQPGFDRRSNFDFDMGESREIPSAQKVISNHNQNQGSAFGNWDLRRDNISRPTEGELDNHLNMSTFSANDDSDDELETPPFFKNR
Procedure: as §1, §2, §3, §4, §5

S. aureus (SaFtsZ) = target: T1, S. aureus (SaFtsZ) (Staphylococcus aureus, UniProt P0A031); experiment: biochemical; assay type: binding; conditions: 0.1 µM compound, 10 µM SaFtsZ, 37 °C
T1 construct: 6xHis (C); made in house; host or cells: E. coli BLR (DE3), pET-22b(+)
T1 sequence (P0A031 1-390): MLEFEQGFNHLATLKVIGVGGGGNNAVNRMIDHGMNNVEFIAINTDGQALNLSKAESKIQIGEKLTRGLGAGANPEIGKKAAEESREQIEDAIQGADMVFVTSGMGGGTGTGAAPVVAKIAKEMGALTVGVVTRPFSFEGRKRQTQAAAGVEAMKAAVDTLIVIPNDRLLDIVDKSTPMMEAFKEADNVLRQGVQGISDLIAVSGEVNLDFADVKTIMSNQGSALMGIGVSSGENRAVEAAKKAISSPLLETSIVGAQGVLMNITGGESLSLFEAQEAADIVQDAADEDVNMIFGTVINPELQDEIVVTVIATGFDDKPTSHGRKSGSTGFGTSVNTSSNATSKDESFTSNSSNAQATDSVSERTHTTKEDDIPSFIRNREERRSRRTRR
Procedure: as §1, §2, §3, §4
The impact of guanosine nucleotide and magnesium on the binding of BOFP to SaFtsZ was assessed at 37 °C in the same buffer described above. In these studies, the anisotropy of 0.1 µM BOFP alone or in the presence of 10 µM SaFtsZ was measured, with the latter also being measured in the presence of 0.1 mM GMPCPP (a non-hydrolyzable GTP analog), 10 mM MgCl2, or both.
as §5

[1] = test system: FtsZ in K. pneumoniae ATCC 13883 cells; experiment: FtsZ visualization by fluorescence microscopy in live cells; assay type: cell-based, Klebsiella pneumoniae; conditions: 1 µg/mL for 5 minutes, co-treated with 3.5 mg/mL pentamidine isethionate
Procedure: (§6) All differential interference contrast (DIC) and fluorescence microscopy experiments were conducted using an Olympus BX50 microscope equipped with an X-cite Exacte 200 W mercury lamp, a 100× Olympus UPLSAPO oil immersion objective (1.40 aperture), as well as both Chroma ET-EGFP (FITC/Cy2) and ET mCherry, Texas Red filters. Images were captured using a QImaging Retiga R3 charge-coupled device (CCD) camera and the Ocular-Version 2.0 software package (QImaging).
For visualizing FtsZ in Gram-negative bacteria using BOFP, E. coli ATCC 25922, K. pneumoniae ATCC 13883, P. aeruginosa ATCC 27853, and A. baumannii ATCC 19606 were grown to log-phase in CAMH broth. For each Gram-negative bacterial strain, a total of 1 mL of cell culture was centrifuged at 15,000 × g for 1 minute and washed twice with 1 mL of Tris-buffered saline (TBS) composed of 50 mM Tris-HCl (pH 7.6) and 150 mM NaCl. After the final wash, the pelleted cells were resuspended in 500 µL of TBS containing 1 µg/mL of BOFP and pentamidine isethionate (at 0.875 mg/mL for E. coli and 3.5 mg/mL for the other three strains). The resuspended cells were then incubated in the dark for 5 minutes at room temperature, centrifuged at 15,000 × g for 1 minute, washed twice with 1 mL of TBS, and subsequently resuspended in 200 µL of TBS. This final cell suspension was then prepared for microscopy as described for the Gram-positive bacterial strains. Comparative control experiments with 1 µg/mL BODIPY FL-COOH were conducted in K. pneumoniae ATCC 13883 cells as described above for BOFP.

P. aeruginosa (PaFtsZ) = target: T2, P. aeruginosa (PaFtsZ) (Pseudomonas aeruginosa, UniProt P47204); experiment: Fluorescence anisotropy binding of BOFP to PaFtsZ; conditions: 0.1 µM compound, 2 µM PaFtsZ, 37 °C
T2 construct: 6xHis (C); made in house; host or cells: E. coli BLR (DE3), pET-22b(+)
T2 sequence (P47204 1-394): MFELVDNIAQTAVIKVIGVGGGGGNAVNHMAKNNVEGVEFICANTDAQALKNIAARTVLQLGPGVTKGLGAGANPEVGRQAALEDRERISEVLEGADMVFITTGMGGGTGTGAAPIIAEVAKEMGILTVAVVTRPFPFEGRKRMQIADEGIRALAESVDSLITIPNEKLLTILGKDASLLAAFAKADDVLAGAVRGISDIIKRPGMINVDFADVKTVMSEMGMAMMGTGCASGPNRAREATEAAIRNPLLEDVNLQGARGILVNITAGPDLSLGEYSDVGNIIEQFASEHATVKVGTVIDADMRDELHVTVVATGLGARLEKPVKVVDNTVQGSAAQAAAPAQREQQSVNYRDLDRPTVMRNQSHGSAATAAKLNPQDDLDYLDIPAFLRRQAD
Procedure: as §1, §2, §3, §4, §5

[2] = target: T3, FtsZ in S. aureus NRS705 cells (Staphylococcus aureus, UniProt P0A031); assay type: cell-based; conditions: 1 µg/mL for 5 minutes
T3 construct: endogenous in cells; host or cells: S. aureus NRS705 (USA100 MRSA)
Procedure: as §6
For visualizing FtsZ in Gram-positive bacteria using BOFP, the bacterial cells were grown to log-phase in media suitable for each individual pathogen. Specifically, S. aureus NRS705 (MRSA) was grown in tryptic soy broth (TSB), E. faecalis ATCC 29212 and E. faecium ATCC 19434 were grown in lactobacilli MRS broth, S. agalactiae ATCC 12386 and S. pneumoniae ATCC 49619 were grown in TH broth, and S. pyogenes ATCC 19615 was grown in CAMH broth supplemented with 3% (v/v) LHB. For each Gram-positive bacterial strain, a total of 1 mL of cell culture was centrifuged at 15,000 × g for 1 minute and washed 2–3 times with 1 mL of PBS. After the final wash, the pelleted cells were resuspended in 500 µL of PBS containing 1 µg/mL of BOFP and incubated in the dark for 5 minutes at room temperature. The cells were then centrifuged at 15,000 × g for 1 minute, washed twice with 1 mL of PBS, and subsequently resuspended in 200 µL of PBS. […]

S. aureus NRS705 (MRSA) = experiment: MIC assay by broth microdilution; assay type: cell-based, Staphylococcus aureus; conditions: for 4× MIC: S. aureus NRS705, concentration equal to four times the MIC; for MIC: Staphylococcus aureus, MRSA NRS705, TH broth, ≥90% growth inhibition after 18-24 hours
Procedure: MIC assays of 1, 3, and BOFP were conducted by standard broth microdilution in TH media. Briefly, log-phase S. aureus NRS705 (MRSA) cells were added to 96-well microtiter plates (at 5 × 10^5 CFU/mL) containing 2-fold serial dilutions of each test compound in 0.1 mL of TH broth, with each compound concentration being present in duplicate. The MIC is defined as the lowest compound concentration at which growth is ≥90% inhibited after 18-24 hours of aerobic growth.

S. aureus NRS705 = experiment: Impact of FtsZ inhibitor treatment on cell morphology and FtsZ localization (DIC/fluorescence microscopy, BOFP labeling); assay type: cell-based, Staphylococcus aureus; conditions: treated at 4x MIC for 3 hours
Procedure: as §6
(§7) To visualize the impact of treatment with the FtsZ inhibitor 1 using BOFP, S. aureus NRS705 (MRSA), E. coli N43, and K. pneumoniae ATCC 10031 were grown to log-phase in CAMH broth and diluted to an OD600 of 0.1. […] Following this treatment, 1–5 mL of each culture was centrifuged at 15,000 × g for 1 minute and washed twice with 1 mL of PBS (for S. aureus) or TBS (for E. coli and K. pneumoniae). The resulting S. aureus cell pellets were further processed and labeled with BOFP as described above for the Gram-positive bacterial strains and the resulting E. coli and K. pneumoniae cell pellets were further processed and labeled with BOFP as described above for the Gram-negative bacterial strains. The impact of treating S. aureus NRS705 cells with the FtsZ inhibitors PC190723 and TXA707 at 4× MIC (2 µg/mL for PC190723 and 4 µg/mL for TXA707) was also examined using BOFP as described above.

MRSA LAC FtsZ-mCherry = experiment: MIC (stated as 4× MIC used for treatment); assay type: cell-based, Staphylococcus aureus; conditions: concentration equal to four times the MIC
E. coli N43 [3] = experiment: Impact of FtsZ inhibitor treatment on cell morphology and FtsZ localization (DIC/fluorescence microscopy, BOFP labeling); assay type: cell-based, Escherichia coli; conditions: treated at 4x MIC for 3 hours
Procedure: as §6, §7

K. pneumoniae ATCC 10031 [4] = experiment: MIC (stated as 4× MIC used for treatment); assay type: cell-based, Klebsiella pneumoniae; conditions: concentration equal to four times the MIC
K. pneumoniae ATCC 10031 [5] = experiment: Impact of FtsZ inhibitor treatment on cell morphology and FtsZ localization (DIC/fluorescence microscopy, BOFP labeling); assay type: cell-based, Klebsiella pneumoniae; conditions: treated at 4x MIC for 3 hours
Procedure: as §6, §7

E. coli N43 [6] = experiment: MIC (stated as 4× MIC used for treatment); assay type: cell-based, Escherichia coli; conditions: concentration equal to four times the MIC

Chain of K. pneumoniae (KpFtsZ) (A0A0H3GRR0 entry or part of it): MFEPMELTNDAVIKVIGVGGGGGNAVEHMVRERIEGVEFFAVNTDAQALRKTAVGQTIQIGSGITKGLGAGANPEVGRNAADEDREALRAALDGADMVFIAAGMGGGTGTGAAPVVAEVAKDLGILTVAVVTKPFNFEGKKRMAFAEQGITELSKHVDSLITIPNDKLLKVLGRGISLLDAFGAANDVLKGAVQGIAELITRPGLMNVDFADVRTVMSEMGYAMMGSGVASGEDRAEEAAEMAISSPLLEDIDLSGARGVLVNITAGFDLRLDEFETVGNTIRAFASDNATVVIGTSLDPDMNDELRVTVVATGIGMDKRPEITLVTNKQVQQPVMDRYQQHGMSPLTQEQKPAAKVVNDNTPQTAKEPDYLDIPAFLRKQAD

Structure (SMILES): CC1=CC(C)=[N+]2C1=Cc1ccc(CCC(=O)O)n1[B-]2(F)F [BODIPY FL-COOH, 3-(5,5-difluoro-7,9-dimethyl-5H-5λ^4,6λ^4-dipyrrolo[1,2-c:2′,1′-f][1,3,2]diazaborinin-3-yl)propanoic acid, reference compound]
Binding interaction (fluorescence anisotropy change on adding FtsZ) (K. pneumoniae (KpFtsZ)): no binding interactions with BODIPY FL-COOH were detectable | Binding interaction (fluorescence anisotropy change on adding FtsZ) (S. pyogenes (SpyFtsZ)): no such binding interactions were observable | Binding interaction (fluorescence anisotropy change on adding FtsZ) (S. aureus (SaFtsZ)): No such anisotropy change was observed | Fluorescence staining / FtsZ labeling in live cells [1]: no such FtsZ staining was detectable | Binding interaction (fluorescence anisotropy change on adding FtsZ) (P. aeruginosa (PaFtsZ)): no binding interactions with BODIPY FL-COOH were detectable | Fluorescence staining / FtsZ labeling in live cells [2]: no fluorescence staining of the S. aureus cells was detectable

Structure (SMILES): NC(=O)c1c(F)ccc(OCc2nc3cc(Cl)cnc3s2)c1F [PC190723]
4× MIC (S. aureus NRS705 (MRSA)): 2 µg/mL

Structure (SMILES): NC(=O)c1c(F)ccc(OCc2nc(-c3ccc(C(F)(F)F)cc3)c(Br)o2)c1F [compound 1]
Change in cell morphology (S. aureus NRS705): cell enlargement | FtsZ localization visualized with BOFP (S. aureus NRS705; then 1 µg/mL BOFP for 5 minutes): clear mislocalization of FtsZ and an absence of Z-rings | 4× MIC (MRSA LAC FtsZ-mCherry): 0.25 µg/mL | Change in cell morphology (E. coli N43 [3]): filamentation | FtsZ localization visualized with BOFP (E. coli N43 [3]; then 1 µg/mL BOFP with 0.875 mg/mL pentamidine isethionate for 5 minutes): clear mislocalization of FtsZ and an absence of Z-rings | 4× MIC (K. pneumoniae ATCC 10031 [4]): 4 µg/mL | 4× MIC (S. aureus NRS705 (MRSA)): 1 µg/mL | MIC (S. aureus NRS705 (MRSA)): 0.25 µg/mL (≈ 0.524 µM) | Change in cell morphology (K. pneumoniae ATCC 10031 [5]): filamentation | FtsZ localization visualized with BOFP (K. pneumoniae ATCC 10031 [5]; then 1 µg/mL BOFP with 3.5 mg/mL pentamidine isethionate for 5 minutes): clear mislocalization of FtsZ and an absence of Z-rings | 4× MIC (E. coli N43 [6]): 4 µg/mL

The next lines start with the values.

4× MIC (S. aureus NRS705 (MRSA)): 4 µg/mL
Structure (SMILES): NC(=O)c1c(F)ccc(OCc2nc3cc(C(F)(F)F)cnc3s2)c1F [TXA707]

MIC (S. aureus NRS705 (MRSA)): 0.5 µg/mL (≈ 0.986 µM)
Structure (SMILES): NC(=O)c1c(F)ccc(OC(CO)c2nc(-c3ccc(C(F)(F)F)cc3)c(Br)o2)c1F (centres unmarked) [compound 3]

— publication PMC6934700, “Structure-Guided Design of a Fluorescent Probe for the Visualization of FtsZ in Clinically Important Gram-Positive and Gram-Negative Bacterial Pathogens” (Scientific Reports, 2019)
